Results on 37 compounds are retold here after patent US9765075B2, “Substituted bridged urea analogs as sirtuin modulators” (GLAXOSMITHKLINE LLC, priority 2013, dated 2017).

In this assay the target is T1, SIRT1 (Homo sapiens, UniProt Q96EB6).
T1 sequence (Q96EB6 1-747): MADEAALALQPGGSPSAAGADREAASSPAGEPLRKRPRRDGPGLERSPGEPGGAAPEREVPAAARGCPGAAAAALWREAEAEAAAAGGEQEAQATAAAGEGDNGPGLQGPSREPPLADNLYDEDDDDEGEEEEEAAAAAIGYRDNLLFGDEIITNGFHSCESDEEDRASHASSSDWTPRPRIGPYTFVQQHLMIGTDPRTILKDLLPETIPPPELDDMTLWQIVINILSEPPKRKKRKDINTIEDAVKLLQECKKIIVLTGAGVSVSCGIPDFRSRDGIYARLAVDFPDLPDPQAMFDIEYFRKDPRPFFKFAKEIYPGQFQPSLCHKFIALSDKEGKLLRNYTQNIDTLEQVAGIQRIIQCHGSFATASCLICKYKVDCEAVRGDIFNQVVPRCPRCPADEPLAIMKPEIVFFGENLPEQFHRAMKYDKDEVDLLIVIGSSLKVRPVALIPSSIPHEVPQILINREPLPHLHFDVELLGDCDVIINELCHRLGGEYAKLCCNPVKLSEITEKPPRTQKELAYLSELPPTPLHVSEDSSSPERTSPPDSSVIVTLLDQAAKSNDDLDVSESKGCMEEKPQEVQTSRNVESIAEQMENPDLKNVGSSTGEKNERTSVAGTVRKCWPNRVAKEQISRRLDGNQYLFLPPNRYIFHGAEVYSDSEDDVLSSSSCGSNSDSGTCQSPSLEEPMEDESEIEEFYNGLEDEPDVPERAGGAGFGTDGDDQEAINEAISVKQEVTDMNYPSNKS
Nature of the assay: Trp mass spectrometry assay (SIRT1 activation). The format is biochemical. Particulars: for Emax: percent maximum fold activation of SIRT1, read-out: Tryp % Fold Act. The procedure, abridged: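 Activation is expressed as EC1.5, the concentration raising activity 50% above DMSO control, and as maximum percent of control. Mass-spec readout was OAADPR or deacetylated Trp peptide after a formic-acid-quenched 25-min, 25 °C reaction: 10 nM bacterially expressed His-SIRT1, 0.5 μM acetyl-p53-derived peptide, 120 μM NAD+, pH 7.5 HEPES with […].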

Setting [1] is: Trp mass spectrometry assay, EC1.5 = concentration giving 150% activation of SIRT1.
Setting [2] is: concentration of test compound that results in 150% activation of SIRT1, Trp peptide substrate.
Setting [3] is: Trp mass spectrometry assay, EC1.5 = concentration of test compound that results in 150% activation of SIRT1.

The structures appear in SMILES notation. Read-outs that look alike come from different tables or passages of the source.

`O=C(C1CC1)N1CCC(c2cccc(NC(=O)N3c4nc(-c5cccc(C(F)(F)F)c5)ccc4N4CC[C@H]3C4)c2)C1` (some centres unmarked) [Example 637]: under setting [1], the “Tryp AVG EC1.5 (μM)” value was “A (EC1.5<1 μM)”. For the same compound, under “Trp mass spectrometry assay”, the Emax is at least 150%. On the same counts, the results for `O=C(Nc1cccc(-c2cnco2)c1)N1c2cc(-c3cccc(C(F)(F)F)c3)ccc2N2CC[C@H]1C2` [Example 786] are “B (EC1.5 1-25 μM)” and at least 150%. Taken in the same sequence, the figures for `CC(=O)c1ccc(NC(=O)N2c3nc(-c4cccc(C(F)(F)F)c4)ccc3N3CC[C@H]2C3)cc1` [Example 668] were “A (EC1.5<1 μM)” and at least 150%. With `O=C(Nc1ccncc1)N1c2nc(-c3cccc(Cl)c3)ccc2N2CCC[C@H]1C2` [Example 409], under setting [2], the “Tryp AVG EC1.5 (μM)” value is “A (EC1.5<1 μM)”. Besides, the Emax (Trp peptide substrate) is at least 150%. Taken in the same sequence, the figures for `O=C(Nc1ccccn1)N1c2nc(-c3ccc4c(c3)OC(F)(F)O4)ccc2N2CC[C@H]1C2` [Example 262] were “B (EC1.5 1-25 μM)” and at least 150%. As for `O=C(Nc1cccnc1)N1c2nc(-c3cccnc3)ccc2N2CCC[C@H]1C2` [Example 455], under setting [2], the “Tryp AVG EC1.5 (μM)” value is recorded as “B (EC1.5 1-25 μM)”. Moreover, the Emax (Trp peptide substrate) is at least 150%. Regarding `N#Cc1cccc(-c2ccc3c(n2)N(C(=O)Nc2cncc(F)c2)[C@H]2CCN3C2)c1` [Example 182], under setting [3], the “Tryp AVG EC1.5 (μM)” value was “A (EC1.5<1 μM)”. Moreover, where the note is “Trp mass spectrometry assay”, the Emax is at least 150%.

Consider `CN(C)[C@H]1CCN(c2ccc3c(n2)N(C(=O)Nc2nccs2)[C@H]2CCN3C2)C1` [Example 247], for which the “Tryp AVG EC1.5 (μM)” value under setting [2] is given as “B (EC1.5 1-25 μM)”. Besides, the Emax (Trp peptide substrate) was at least 150%.

For the compound `COc1ncc(-c2ccc3c(n2)N(C(=O)Nc2ccccn2)[C@H]2CCN3C2)c(OC)n1` [Example 263], the “Tryp AVG EC1.5 (μM)” value under setting [2] is on record as “B (EC1.5 1-25 μM)”. Moreover, the Emax (Trp peptide substrate) is at least 150%. `O=C(Nc1cncc(F)c1)N1c2nc(-c3cccc(Cl)c3)ccc2N2CC[C@H]1C2` [Example 119]: the “Tryp AVG EC1.5 (μM)” value under setting [3] was “A (EC1.5<1 μM)”. Moreover, the Emax (Trp mass spectrometry assay) is at least 150%. For `O=C(Nc1cccc(C2(C(F)(F)F)N=N2)c1)N1c2nc(-c3cccc(C(F)(F)F)c3)ccc2N2CC[C@H]1C2` [Example 315], the “Tryp AVG EC1.5 (μM)” value under setting [2] was “B (EC1.5 1-25 μM)”. Further, the Emax (Trp peptide substrate) was at least 150%. Taken in the same sequence, the figures for `N#Cc1ccccc1-c1ccc2c(n1)N(C(=O)Nc1cccnn1)[C@H]1CCCN2C1` [Example 426] were “B (EC1.5 1-25 μM)” and at least 150%. For the compound `O=C(Nc1cnccn1)N1c2nc(-c3cccc(C(F)(F)F)c3)ccc2N2CC[C@H]1C2` [Example 10], the Emax (Trp mass spectrometry assay) was at least 150%. For `O=C(Nc1cccc(-c2cnco2)n1)N1c2nc(-c3cccc(C(F)(F)F)c3)ccc2N2C[C@@H](O)[C@H]1C2` [Example 698], under setting [1], the “Tryp AVG EC1.5 (μM)” value is “A (EC1.5<1 μM)”. For the same compound, the Emax (Trp mass spectrometry assay) is at least 150%. Take `COc1cncc(NC(=O)N2c3nc(-c4cccc(OC(F)(F)F)c4)ccc3N3CC[C@H]2C3)n1` [Example 197]: under setting [3], the “Tryp AVG EC1.5 (μM)” value was “A (EC1.5<1 μM)”. In addition, where the note is “Trp mass spectrometry assay”, the Emax is at least 150%. On the same counts, the results for `Cc1nc(NC(=O)N2c3nc(-c4cccc(N5CCCC5)c4)ccc3N3CC[C@H]2C3)sc1C` [Example 187] are “B (EC1.5 1-25 μM)” and at least 150%. As to `Cc1cncc(-c2ccc3c(n2)N(C(=O)Nc2cnccn2)[C@H]2CCCN3C2)c1` [Example 512], under setting [2], the “Tryp AVG EC1.5 (μM)” value is listed as “B (EC1.5 1-25 μM)”. The Emax (Trp peptide substrate) was at least 150%. Regarding `Cc1nccn1CCCNC(=O)N1c2nc(-c3cccc(C(F)(F)F)c3)ccc2N2CC[C@H]1C2` [Example 632], the “Tryp AVG EC1.5 (μM)” value under setting [1] is on record as “C (EC1.5>25 μM)”. The Emax (Trp mass spectrometry assay) was at least 150%. `O=C(Nc1nnc(-c2ccncc2)s1)N1c2nc(-c3cccc(C(F)(F)F)c3)ccc2N2CC[C@H]1C2` [Example 733]: the “Tryp AVG EC1.5 (μM)” value under setting [1] is listed as “A (EC1.5<1 μM)”. Besides, where the note is “Trp mass spectrometry assay”, the Emax is at least 150%. `Cc1noc(C)c1-c1ccc2c(n1)N(C(=O)Nc1cnccn1)[C@H]1CCN2C1` [Example 413]: the “Tryp AVG EC1.5 (μM)” value under setting [2] is recorded as “C (EC1.5>25 μM)”. The Emax (Trp peptide substrate) is under 150%.

In the case of `O=C(Nc1ccncc1F)N1c2nc(-c3cccc(C(F)(F)F)c3)ccc2N2CC[C@H]1C2` [Example 15], the Emax (Trp mass spectrometry assay) is at least 150%. Take `O=C(Nc1ccnc(OC[C@H](O)CO)c1)N1c2nc(-c3cccc(F)c3)ccc2N2CC[C@H]1C2` [Example 73]: for the setting “Trp mass spectrometry assay”, the Emax is at least 150%. Take `O=C(Nc1cccc(-c2cnco2)c1)N1c2nc(-c3cccc(N4CCCC4)c3)ccc2N2CC[C@H]1C2` [Example 191]: the “Tryp AVG EC1.5 (μM)” value under setting [3] is “A (EC1.5<1 μM)”. In addition, where the note is “Trp mass spectrometry assay”, the Emax was at least 150%. With `Cc1cnccc1NC(=O)N1c2nc(-c3cccc(F)c3)ccc2N2CC[C@H]1C2` [Example 62], for the setting “Trp mass spectrometry assay”, the Emax is at least 150%. Regarding `O=C(Nc1cnccn1)N1c2nc(-c3cccc(OC(F)(F)F)c3)ccc2N2CC[C@H]1C2` [Example 164], the “Tryp AVG EC1.5 (μM)” value under setting [3] is “A (EC1.5<1 μM)”. The Emax (Trp mass spectrometry assay) is at least 150%. On the same counts, the results for `Cn1ncc2cc(NC(=O)N3c4nc(-c5cccc(N6CCCC6)c5)ccc4N4CC[C@H]3C4)ccc21` [Example 207] are “A (EC1.5<1 μM)” and at least 150%. On to `O=C(Nc1ccncn1)N1c2nc(-c3cccc(C(F)(F)F)c3)ccc2N2CCC[C@H]1C2` [Example 29], for which the Emax (Trp mass spectrometry assay) was at least 150%.

As for `O=C(Nc1ccncn1)N1c2nc(N3CCCN(CC(F)(F)F)CC3)ccc2N2CCC[C@H]1C2` [Example 491], the “Tryp AVG EC1.5 (μM)” value under setting [2] is “A (EC1.5<1 μM)”. In addition, the Emax (Trp peptide substrate) was at least 150%. Regarding `COc1cc(NC(=O)N2c3nc(-c4cncc(F)c4)ccc3N3CCC[C@H]2C3)ncn1` [Example 404], the “Tryp AVG EC1.5 (μM)” value under setting [2] is “A (EC1.5<1 μM)”. For the same compound, the Emax (Trp peptide substrate) is at least 150%. Taken in the same sequence, the figures for `COc1cc(NC(=O)N2c3nc(-c4cccc(N5CCC(C(F)(F)F)C5)c4)ccc3N3CC[C@H]2C3)ncn1` (some centres unmarked) [Example 320] were “B (EC1.5 1-25 μM)” and at least 150%.

`COc1nccc(NC(=O)N2c3nc(-c4cccc(OC(F)(F)F)c4)ccc3N3CC[C@H]2C3)n1` [Example 176]: under setting [3], the “Tryp AVG EC1.5 (μM)” value is recorded as “A (EC1.5<1 μM)”. Moreover, the Emax (Trp mass spectrometry assay) is at least 150%. With `O=C(Nc1ccncn1)N1c2nc(-c3cccc(C(F)(F)F)c3)ccc2N2CC[C@H]1C2` [Example 12], the Emax (Trp mass spectrometry assay) is at least 150%. `O=C(Nc1ccc(F)cn1)N1c2nc(-c3cccc(C(F)(F)F)c3)ccc2N2CC[C@@H]1C2` [Example 203]: the “Tryp AVG EC1.5 (μM)” value under setting [3] was “B (EC1.5 1-25 μM)”. Also, where the note is “Trp mass spectrometry assay”, the Emax was at least 150%.

On to `O=C(Nc1ccc(F)cn1)N1c2nc(-c3cncc(C(F)(F)F)c3)ccc2N2CC[C@H]1C2` [Example 277], for which the “Tryp AVG EC1.5 (μM)” value under setting [2] is “A (EC1.5<1 μM)”. Further, the Emax (Trp peptide substrate) was at least 150%. Taken in the same sequence, the figures for `Cn1nccc1-c1ccc2c(n1)N(C(=O)Nc1cnccn1)[C@H]1CCN2C1` [Example 414] were “B (EC1.5 1-25 μM)” and at least 150%.

In the case of `O=C(O[C@@H]1CN2C[C@H]1N(C(=O)Nc1ccccn1)c1nc(-c3cccc(C(F)(F)F)c3)ccc12)c1ccccc1` [Example 603], under setting [2], the “Tryp AVG EC1.5 (μM)” value is reported as “C (EC1.5>25 μM)”. Besides, under “Trp peptide substrate”, the Emax was under 150%. For the compound `O=C(Nc1ccc(F)cn1)N1c2nc(C3CCCC(C(F)(F)F)C3)ccc2N2CC[C@H]1C2` (some centres unmarked) [Example 144], the “Tryp AVG EC1.5 (μM)” value under setting [3] is recorded as “B (EC1.5 1-25 μM)”. Under “Trp mass spectrometry assay”, the Emax was at least 150%.
